Measured values taken from the NIST ThermoML archive (doi:10.1016/j.jct.2012.12.006).
Several values for one entry are separate records, joined by “and”; a condition that tells them apart may be missing. Identical values can stand only once.

How the values were obtained:
[1] = for vapor or sublimation pressure: Calculated from knudsen effusion weight loss; for Triple point temperature: DTA
[2] = Molar enthalpy of transition or fusion; conditions: DSC

NC(=O)c1cccc(N)c1 [3-aminobenzamide]
[1], Crystal
Conditions	vapor or sublimation pressure
358.14 K	3.7e-05 kPa and 3.8e-05 kPa
360.19 K	4.8e-05 kPa and 4.7e-05 kPa
362.14 K	5.9e-05 kPa and 5.8e-05 kPa and 6e-05 kPa
364.14 K	7.5e-05 kPa
366.17 K	9.4e-05 kPa
368.15 K	0.000116 kPa and 0.000114 kPa and 0.000117 kPa
370.15 K	0.000144 kPa and 0.000146 kPa and 0.000143 kPa
372.19 K	0.000179 kPa and 0.000177 kPa and 0.000176 kPa
374.13 K	0.000218 kPa and 0.000216 kPa and 0.000222 kPa
376.15 K	0.000276 kPa and 0.000275 kPa and 0.000274 kPa
378.18 K	0.000342 kPa and 0.000338 kPa
380.14 K	0.00042 kPa and 0.000406 kPa and 0.000405 kPa

Conditions	Molar enthalpy of transition or fusion, [2] [kcal/mol]	Triple point temperature, [1] [K]
Crystal 1	4.85	387.5
Crystal 2	0.789	352.4

NC(=O)c1ccc(N)cc1 [4-aminobenzamide]
[1], Crystal
Conditions	vapor or sublimation pressure
389.14 K	0.000125 kPa and 0.000124 kPa
391.15 K	0.000154 kPa and 0.000156 kPa and 0.000152 kPa
393.14 K	0.000185 kPa and 0.000182 kPa and 0.000187 kPa
395.15 K	0.000228 kPa and 0.000226 kPa
397.15 K	0.000271 kPa and 0.000279 kPa
399.14 K	0.00033 kPa and 0.000332 kPa and 0.000335 kPa
401.16 K	0.000407 kPa and 0.000411 kPa
403.15 K	0.000497 kPa and 0.000495 kPa and 0.000498 kPa
405.14 K	0.000597 kPa and 0.000591 kPa and 0.000602 kPa
407.19 K	0.000728 kPa and 0.000721 kPa
409.2 K	0.000873 kPa and 0.000868 kPa and 0.000883 kPa
411.15 K	0.001054 kPa and 0.001042 kPa and 0.001008 kPa

Crystal
Conditions	Molar enthalpy of transition or fusion [kcal/mol]	Triple point temperature [K]
[1]	–	457.6
[2]	7.17	–

NC(=O)c1ccccc1N [anthranilamide]
[1], Crystal
Conditions	vapor or sublimation pressure
335.11 K	9.5e-05 kPa and 9.6e-05 kPa
337.17 K	0.000121 kPa and 0.00012 kPa
339.17 K	0.00015 kPa and 0.000149 kPa and 0.000152 kPa
341.1 K	0.00019 kPa and 0.000188 kPa and 0.000187 kPa
343.16 K	0.000237 kPa and 0.000232 kPa and 0.000236 kPa
345.16 K	0.00029 kPa and 0.000285 kPa and 0.000298 kPa
347.11 K	0.000359 kPa and 0.000357 kPa
349.16 K	0.000445 kPa and 0.000435 kPa and 0.000441 kPa
351.17 K	0.000539 kPa and 0.00053 kPa and 0.000545 kPa
353.12 K	0.000667 kPa and 0.000663 kPa
355.16 K	0.00082 kPa and 0.000826 kPa and 0.000806 kPa
357.16 K	0.000993 kPa and 0.000994 kPa

Crystal
Conditions	Molar enthalpy of transition or fusion [kcal/mol]	Triple point temperature [K]
[1]	–	384.4
[2]	5	–
